“And” between values parts separate entries of the source, which are not always exact repeats. Equal entries are not always repeated. Each block holds one compound with its values, some of them ahead of it.
Assay: photoluminescence quantum yield (fraction); solvent given as SMILES
[1] = in c1ccc2c(c1)c1ccccc1n2-c1ccc(-c2ccc(-n3c4ccccc4c4ccccc43)cc2)cc1

SMILES: C=CC1CN2CCC1CC2[C@@H](OCc1ccccc1)c1ccnc2ccc(O)cc12 (some centres undefined)
photoluminescence quantum yield (in C1CCOC1): 0.12 | photoluminescence quantum yield (in CC#N): 0.016 | photoluminescence quantum yield (in CCCC#N): 0.021 | photoluminescence quantum yield (in Cc1ccccc1): 0.06 | photoluminescence quantum yield (in ClCCl): 0.035

SMILES: COc1ccc(/C=C/C2=CC(/C=C/c3ccc(OC)c4ccccc34)=[O+][B-](F)(F)O2)c2ccccc12
photoluminescence quantum yield (in CC#N): 0.12 | photoluminescence quantum yield (in CC(C)=O): 0.21 | photoluminescence quantum yield (in CCOC(C)=O): 0.31 | photoluminescence quantum yield (in CCOCC): 0.29 | photoluminescence quantum yield (in ClC(Cl)(Cl)Cl): 0.23 | photoluminescence quantum yield (in ClCCl): 0.39

SMILES: C#CCNC1=C2C=CC=[N+]2[B-](F)(F)n2cccc21
photoluminescence quantum yield (in C1CCCCC1): 0.93 and 0.999 | photoluminescence quantum yield (in CC(C)=O): 0.86 | photoluminescence quantum yield (in CCCCO): 0.79 | photoluminescence quantum yield (in CCCO): 0.741 | photoluminescence quantum yield (in CCO): 0.66 and 0.6 | photoluminescence quantum yield (in CCOC(C)=O): 0.94 | photoluminescence quantum yield (in CN(C)C=O): 0.442 | photoluminescence quantum yield (in CO): 0.52 | photoluminescence quantum yield (in CS(C)=O): 0.278 | photoluminescence quantum yield (in Cc1ccccc1): 0.92 | photoluminescence quantum yield (in ClC(Cl)Cl): 0.829 | photoluminescence quantum yield (in OCC(F)(F)F): 0.88 | photoluminescence quantum yield (in c1ccccc1): 0.924

SMILES: COc1cc2c(cc1-c1ccc(N(C)C)cc1)Cc1c3c(c4c(c1-2)-c1cc(OC)c(-c2ccc(N(C)C)cc2)cc1C4)C(=O)N(CCC(C)C)C3=O
photoluminescence quantum yield (in C1CCOC1): 0.02

SMILES: COc1ccc2c(c1)c1cc(OC)ccc1n2-c1ccc2c(c1)-c1cc(-n3c4ccc(OC)cc4c4cc(OC)ccc43)ccc1P2(=O)c1ccccc1
photoluminescence quantum yield (in Cc1ccccc1): 0.79 | photoluminescence quantum yield [1]: 0.78

SMILES: CC1=CC(/C=C/c2ccccc2)=[N+]2C1=C(c1ccccc1)c1c(C)cc(/C=C/c3ccccc3)n1[B-]2(F)F
photoluminescence quantum yield (in Cc1ccccc1): 0.59

SMILES: CC[N+]1(CC)CN2C(=N1)C(C(=O)O)=Cc1ccc(C)cc12
photoluminescence quantum yield (in O): 0.617

SMILES: CC(=O)c1c2c(cc3c(N(C)C)cccc13)CCC2
photoluminescence quantum yield (in C1CCCCC1): 0.28 | photoluminescence quantum yield (in C1CCOC1): 0.39 | photoluminescence quantum yield (in C1COCCO1): 0.44 | photoluminescence quantum yield (in CC#N): 0.23 | photoluminescence quantum yield (in CCO): 0.01 | photoluminescence quantum yield (in CS(C)=O): 0.48 | photoluminescence quantum yield (in Cc1ccccc1): 0.47 | photoluminescence quantum yield (in ClC(Cl)Cl): 0.4 | photoluminescence quantum yield (in ClCCl): 0.6

SMILES: CC1(C)c2cc(-n3c4ccccc4c4ccccc43)ccc2N(c2ccc(-c3cc(-c4ccccc4)nc(-c4ccccc4)n3)cc2)c2ccc(-n3c4ccccc4c4ccccc43)cc21
photoluminescence quantum yield (in O=P(c1ccccc1)(c1ccccc1)c1ccccc1Oc1ccccc1P(=O)(c1ccccc1)c1ccccc1): 0.81

SMILES: COc1ccc(N2c3ccc4ccccc4c3-c3c4ccccc4cc[n+]3[B-]2(c2ccccc2)c2ccccc2)cc1
photoluminescence quantum yield (in Cc1ccccc1): 0.001

SMILES: [C-]#[N+]c1ccc(-c2ccc(N)cc2)cc1
photoluminescence quantum yield (in C1CCCCC1): 0.66 | photoluminescence quantum yield (in C1CCOC1): 0.78 | photoluminescence quantum yield (in C1COCCO1): 0.79 | photoluminescence quantum yield (in CC#N): 0.65 | photoluminescence quantum yield (in CC(C)=O): 0.52 | photoluminescence quantum yield (in CCCCCC): 0.76 | photoluminescence quantum yield (in CCOC(C)=O): 0.67 | photoluminescence quantum yield (in CN(C)C=O): 0.78 | photoluminescence quantum yield (in CO): 0.1 | photoluminescence quantum yield (in CS(C)=O): 0.77 | photoluminescence quantum yield (in Cc1ccccc1): 0.68 | photoluminescence quantum yield (in ClC(Cl)Cl): 0.2 | photoluminescence quantum yield (in ClCCl): 0.75 | photoluminescence quantum yield (in O): 0.0088 | photoluminescence quantum yield (in c1ccncc1): 0.06

SMILES: CCCCC(CC)CN1C(=O)C2=C(c3ccc(-c4ccc(C5=C6C(C)=CC(C)=[N+]6[B-](F)(F)n6c(C)cc(C)c65)cc4)s3)N(CC(CC)CCCC)C(=O)C2=C1c1cccs1 (centres undefined)
photoluminescence quantum yield (in Cc1ccccc1): 0.57

SMILES: O=c1oc2ccccc2cc1/C=C/c1ccc([N+](=O)[O-])cc1
photoluminescence quantum yield (in CC#N): 0.04

SMILES: Cc1ccc(C2=C3C=CC([Te]c4ccccc4)=[N+]3[B-](F)(F)n3c([Te]c4ccccc4)ccc32)cc1
photoluminescence quantum yield (in C1CCOC1): 0.01

SMILES: O=P1(c2ccccc2)c2cc(N3c4ccccc4Oc4ccccc43)ccc2-c2ccc(N3c4ccccc4Oc4ccccc43)cc21
photoluminescence quantum yield (in Cc1ccccc1): 0.47 | photoluminescence quantum yield [1]: 0.41

SMILES: O=C1c2ccc(-c3ccc(N(c4ccccc4)c4ccccc4)cc3)cc2S(=O)(=O)c2cccc(-c3ccc(N(c4ccccc4)c4ccccc4)cc3)c21
photoluminescence quantum yield [1]: 0.04

SMILES: CCC1=C(C)C2=C(C)c3cc(I)cn3[B-](F)(F)[N+]2=C1C
photoluminescence quantum yield (in C1CCCCC1): 0.13 | photoluminescence quantum yield (in CC(C)=O): 0.087 | photoluminescence quantum yield (in CCO): 0.095 | photoluminescence quantum yield (in CCOC(C)=O): 0.097 | photoluminescence quantum yield (in CO): 0.086 | photoluminescence quantum yield (in OCC(F)(F)F): 0.075

SMILES: C1=[N+](c2ccccc2)[B-](c2ccccc2)(c2ccccc2)Oc2c1ccc1c3c(ccc21)C=[N+](c1ccccc1)[B-](c1ccccc1)(c1ccccc1)O3
photoluminescence quantum yield (in Cc1ccccc1): 0.7 | photoluminescence quantum yield (in ClCCl): 0.76

SMILES: S=P1(c2ccccc2)C(c2ccccc2)=Cc2cc3ccccc3cc21 (centres undefined)
photoluminescence quantum yield (in ClCCl): 0.001

SMILES: O=C(O)C1=C(C(=O)O)C2=C[C@H]3c4ccccc4[C@]2([Se]1)c1ccccc13
photoluminescence quantum yield (in ClCCl): 0.38

SMILES: Cc1cc(C2=C(c3c(C)sc(-c4ccc(-c5nc(-c6ccccc6)c(-c6ccccc6)[nH]5)cc4)c3C)C(F)(F)C(F)(F)C2(F)F)c(C)s1
photoluminescence quantum yield (in C1CCOC1): 0.077

Next, values leading:

photoluminescence quantum yield (in ClCCl): 0.11
SMILES: C(=C\c1ncc(-c2ccc(OCc3ccccc3)c(OCc3ccccc3)c2)o1)/c1cccc(N2CCN(c3ccccc3)CC2)c1

photoluminescence quantum yield (in CO): 0.03
SMILES: COc1ccc(O)c(C=O)c1

photoluminescence quantum yield (in ClC(Cl)Cl): 0.075
SMILES: CC(C)(C)c1ccc2c(c1)oc1nc3oc4ccc(-n5c6ccccc6c6ccccc65)cc4c3cc12

photoluminescence quantum yield (in ClCCl): 0.12
SMILES: Cc1ccc(-c2c3nc(c(-c4ccc(C)cc4)c4ccc([nH]4)c(-c4ccc(OC(=O)C(C)c5cccc(C(=O)c6ccccc6)c5)cc4)c4nc(c(-c5ccc(C)cc5)c5ccc2[nH]5)C=C4)C=C3)cc1 (centres undefined)

photoluminescence quantum yield (in ClCCl): 0.062
SMILES: COc1ccc(-c2cn3ccc[n+]3[n-]2)cc1

photoluminescence quantum yield (in ClCCl): 0.27
SMILES: COc1ccc(CCNC(=O)c2sc(-c3ccc(-c4cc(-c5ccc(C(C)(C)C)cc5)c(C(=O)NCCc5ccc(OC)c(OC)c5)s4)s3)cc2-c2ccc(C(C)(C)C)cc2)cc1OC

photoluminescence quantum yield (in C1CCCCC1): 0.0073 | photoluminescence quantum yield (in c1ccccc1): 0.001
SMILES: CNc1ccc2c(c1)C(=O)c1ccccc1-2

photoluminescence quantum yield (in CCCCCC): 0.1
SMILES: CC(C)[Si](C#Cc1ccc(C#C[Si](C(C)C)(C(C)C)C(C)C)c2nc3c(nc12)C1c2ccccc2C3c2ccccc21)(C(C)C)C(C)C

photoluminescence quantum yield (in CC#N): 0.9 and 0.66
SMILES: Cn1c(-c2ccc(-c3nc(-c4ccccc4)c(-c4ccccc4)n3C)cc2)nc(-c2ccccc2)c1-c1ccccc1

photoluminescence quantum yield (in CCO): 0.0001
SMILES: CC1(C)CC(/C=C/c2ccc(-n3ccnc3)cc2)=CC(=C(C#N)C#N)C1

photoluminescence quantum yield (in C1CCOC1): 0.046
SMILES: N#Cc1ccc(C=C(c2ccccc2)c2ccccc2)cc1

photoluminescence quantum yield (in CC#N): 0.68 | photoluminescence quantum yield (in ClCCl): 0.83
SMILES: COC(=O)c1cc(=O)n(C)c2cc(-c3ccc4c(c3)OCCO4)sc12

photoluminescence quantum yield (in CO): 0.93 | photoluminescence quantum yield (in CS(C)=O): 0.98 | photoluminescence quantum yield (in ClC(Cl)Cl): 1 | photoluminescence quantum yield (in c1ccccc1): 0.98
SMILES: CCC1=C(C)C(=O)n2c1cc1c(C)c(CC)c(C)n1c2=O

photoluminescence quantum yield (in CCCCCC): 0.57 | photoluminescence quantum yield (in ClCCl): 0.76
SMILES: CC(C)[Si](C#Cc1c2ccccc2c(C#C[Si](C(C)C)(C(C)C)C(C)C)c2nc3cc4c(cc3nc12)C1c2ccccc2C4c2ccccc21)(C(C)C)C(C)C

photoluminescence quantum yield (in ClCCl): 0.004
SMILES: N#Cc1ccc(/C2=C3N=C(C(c4ccccc4)=C/3c3ccccc3)/C(c3ccc(C#N)cc3)=c3\[nH]/c(c(-c4ccccc4)c3-c3ccccc3)=C(/c3ccc(C#N)cc3)C3=N/C(=C(/c4ccc(C#N)cc4)c4[nH]c2c(-c2ccccc2)c4-c2ccccc2)C(c2ccccc2)=C3c2ccccc2)cc1

photoluminescence quantum yield (in ClCCl): 0.08
SMILES: CC(C)(C)c1ccc2c(c1)c1cc(C(C)(C)C)ccc1n2-c1ccc(N(c2ccc(-c3ccc(-c4ccc(-c5ccc(-c6ccc(N(c7ccc(-n8c9ccc(C(C)(C)C)cc9c9cc(C(C)(C)C)ccc98)cc7)c7ccc(-n8c9ccc(C(C)(C)C)cc9c9cc(C(C)(C)C)ccc98)cc7)cc6)s5)c5nsnc45)s3)cc2)c2ccc(-n3c4ccc(C(C)(C)C)cc4c4cc(C(C)(C)C)ccc43)cc2)cc1

photoluminescence quantum yield (in ClCCl): 0.111
SMILES: COC(=O)c1[nH]c(-c2ccccc2)c2nnc3ccsc3c12

photoluminescence quantum yield (in CC#N): 0.936 | photoluminescence quantum yield (in CO): 0.98
SMILES: COc1ccc(-n2nc(C#N)c(N3CCCC3)n2)cc1

photoluminescence quantum yield (in CC#N): 0.27 | photoluminescence quantum yield (in CCCCCC): 0.11
SMILES: Cc1ccc(C)n1-c1ccc(N(C)C)cc1

photoluminescence quantum yield (in ClC(Cl)Cl): 0.61
SMILES: N#Cc1nc(N(Cc2ccccc2I)Cc2ccccc2I)c(C#N)nc1N(Cc1ccccc1I)Cc1ccccc1I

photoluminescence quantum yield (in C1CCOC1): 0.56
SMILES: Cc1ccc(C2=C3C=CC([Se]c4ccccc4)=[N+]3[B-](F)(F)n3c([Se]c4ccccc4)ccc32)cc1

photoluminescence quantum yield (in ClCCl): 0.92
SMILES: COc1ccc(C#Cc2c3cc4cc(C)sc4cc3c(C#Cc3ccc(OC)cc3)c3cc4cc(C)sc4cc23)cc1

photoluminescence quantum yield (in C1CCOC1): 0.084 | photoluminescence quantum yield (in CC#N): 0.002 | photoluminescence quantum yield (in CN(C)C=O): 0.002 | photoluminescence quantum yield (in ClC(Cl)Cl): 0.999 | photoluminescence quantum yield (in c1ccccc1): 0.999
SMILES: CN(C)c1ccc(C#Cc2ccc(C#Cc3ccc(C#Cc4ccccc4C#N)cc3C#N)cc2C#N)cc1

photoluminescence quantum yield (in ClC(Cl)Cl): 0.5
SMILES: C[N+]1=c2ccc3c(c2C(C)(C)CC1)Oc1cc2c(cc1C=3c1ccccc1C(=O)O)C(c1ccccc1C(=O)O)=c1ccc3c(c1O2)C(C)(C)CC[N+]=3C

photoluminescence quantum yield (in ClCCl): 0.092
SMILES: CC(C)(C)c1cc(-c2ccc(-c3cccs3)s2)c2c(c1)c1cc(C(C)(C)C)cc(-c3ccc(-c4cccs4)s3)c1n2-c1ccc(-c2cccs2)s1

photoluminescence quantum yield (in CO): 0.16
SMILES: COc1c(/C=N/Nc2ccc(C#N)cc2)ccc2ccccc12

photoluminescence quantum yield (in C1CCCCC1): 0.41
SMILES: Cc1ccc(C)c(C)c1

photoluminescence quantum yield (in CC#N): 0.56 | photoluminescence quantum yield (in CO): 0.3 | photoluminescence quantum yield (in ClCCl): 0.61
SMILES: Cc1cc(O)c(-c2[nH]c(=O)n3c2-c2ccccc2C3=O)cc1Cl

photoluminescence quantum yield (in ClC(Cl)Cl): 0.04
SMILES: CCCCCCCCn1c(=O)c2cc3cc4cc5c(=O)n(CCCCCCCC)c(=O)c5cc4c(-c4ccc(N(c5ccccc5)c5ccccc5)cc4)c3cc2c1=O

photoluminescence quantum yield (in O): 0.64
SMILES: Nc1cccc[nH+]1

photoluminescence quantum yield (in C1CCCCC1): 0.0024 | photoluminescence quantum yield (in CC#N): 0.0001 | photoluminescence quantum yield (in CCO): 0
SMILES: COc1ccc2c(c1)C(=O)c1cc(OC)cc(OC)c1-2
